Results taken from patent US10209240B2, “Predicting human developmental toxicity of pharmaceuticals using human stem-like cells and metabolomic ratios” (STEMINA BIOMARKER DISCOVERY, INC., priority 2012, dated 2019).
Like-named read-outs stand apart in the source and are kept apart here.

Tests used:
hES cells [1] = assay: devTOX computational model predictions (Version 2.0, Version 2.1) from hES cell metabolomics; format: cell-based, human; details: single dose per treatment (Dose column)
From the text: The selection process weighted the predictive capacity of a feature, overall intensity, and peak shape to identify very well behaved features/metabolites that could be measured by targeted LC-MS or even by other detection systems.
(§1) This simplified model is based on a ratio of the reference treatment (DMSO) normalized values of ADMA and cystine.

hES cells [2] = assay: ADMA/cystine ratio simplified predictive model in hES cell spent media; format: cell-based, human; details: single dose per treatment; ratios less than 0.9 indicate teratogenicity
From the text: as §1
The X-axis is the reference normalized ratio of ADMA/Cystine. The y-axis is the training set of pharmaceuticals. Grey color with triangle glyphs represents teratogens and black color with circle glyphs represents non-teratogens. Each glyph point represents the media value of an independent experimental block (6 reps per block). The crosshair glyphs mark the sample medians. In FIG. 9, grey vertical line is threshold of teratogenicity, grey horizontal lines are the median absolute deviations, and black vertical line designates 1.0. The arrows at the bottom indicate the values used for differentiation of teratogens and nonteratogens, utilizing a cut off of 0.9 (grey line).

Humans = details: cited from earlier work; for Known Effect: validation and test set treatments of Example 2; for Humans (known human developmental toxicity): training and test set
WA09 hES cells [3] = assay: Phase 2 targeted biomarker assay, ornithine/cystine ratio, 9-point dose response; details: for Teratogenicity Potential (μM) O/C Ratio: human, 72 h
From the text: Undifferentiated hES Cell Line Maintenance (Phases 1 and 2). WA09 hES cells were obtained from the WiCell Research Institute (Madison, Wis.) and were maintained in feeder free conditions using mTeSR1 media (StemCell Technologies, Inc., Vancouver, BC, Canada) on hESC-qualified Matrigel (BD Biosciences, San Jose, Calif.) coated 6-well plates. To maintain the undifferentiated stem cell population, differentiated colonies were removed daily through aspiration and media was replaced. Additionally, the hES cells were only used in experiments up to passage 40 and were karyotyped approximately every 10 passages to minimize and monitor the potential for genetic instability. hES cells were passaged at 90-95% confluency (approximately every 7 days) using Versene (Life Technologies, Grand Island, N.Y.). Cell cultures were maintained at 37° C. under 5% CO2.
96-well hES Cell Plating (Phases 1 and 2). All experimental treatments were carried out in 96-well plates. To minimize plating variability and increase reproducibility, hES cells were plated as a single cell suspension and maintained in an undifferentiated state during compound exposure. Prior to plating in the 96-well plates, hES cells were removed from a 6-well plate using TrypLE (Life Technologies). The cells were washed with DMEM/F12 (Life Technologies) and resuspended in mTeSR1 containing 10 μM Y27632 Rho-associated kinase (ROCK) inhibitor (Merck KGaA/Calbiochem, Darmstadt, Germany). The ROCK inhibitor is added to the plating media to increase plating efficiency by decreasing dissociation-induced apoptosis. The inner 60 wells of hESC-qualified Matrigel coated 96-well plates were seeded at a density of 100,000 cells per well. The outer wells of the plate contained an equal volume media to minimize differences in humidity across the plate. Compound exposure began 24 hours after plating.
(§2) Phase 2 hES Cell Compound Exposure. […] The standard compound exposure levels used for most compounds were nine, 3-fold dilutions ranging from 0.04 μM-300 μM (FIG. 1B). […] The stock solution was diluted 1:1000 in mTeSR1 media and subsequent dilutions were performed in mTeSR1 containing 0.1% DMSO such that the final concentration of DMSO was 0.1% in all treatments. hES cells were treated for 72 hours and spent media from the last 24-hour treatment period was collected and added to acetonitrile containing ^13C6 labeled arginine (Cambridge Isotope Laboratories, Andover, Md.) as described under Phase 1. Spent media samples were stored at −80° C. until prepared for LC-HRMS analysis. Cell viability was assessed using the CellTiter-Fluor Cell Viability Assay. A quality control step was included with criteria that the CV of the measured viability RFU of the DMSO control cells could not exceed 10% for a plate to undergo LC-HRMS analysis. A dose response curve was fit to the reference treatment (0.1% DMSO treated control cells) normalized data (Viability RFUTrt X/Viability RFUDMSO) using a four-parameter log-logistic model with the R package “drc” (Ritz and Streibig, 2005, J Statistical Software; 12:1-22).
Sample Preparation (Phases 1 and 2). High molecular weight constituents (>10 KDa) of the spent media samples were removed using a Millipore Multiscreen Ultracel-10 filter plate (EMD Millipore, Billerica, Mass.). Prior to sample filtration, the filter plate was washed with 0.1% NaOH to remove a known contaminant polymer. The plate was then rinsed twice with HPLC-grade water to remove residual polymers and NaOH. Spent media samples were added to the washed filter plate. In Phase 1, samples were spiked with ^13C6 labeled arginine. Samples were centrifuged at 2,000×g at 4° C. for 200 minutes. The filtrate was collected and concentrated overnight in a Savant High Capacity Speedvac Plus Concentrator.

WA09 hES cells [4] = system: WA09 hES cells
Protocol: Phase I hES Cell Compound Exposure. hES cells were treated with a test compound at a single concentration equivalent to the compound's published therapeutic Cmax. […] This was done to ensure that enough cells were present at the time of sample collection to provide a signal for LC-HRMS analysis. For test compound exposure, all compound stock solutions, with the exception of valproic acid, were made with DMSO (Sigma-Aldrich). […] Each 96-well plate included media controls with and without test compound, 0.1% DMSO solvent control cells and cells exposed to a single concentration of eight different test compounds (FIG. 1A). Media controls were included on each plate to assess the impact of test compound on the sample matrix. hES cells were exposed to the test compound for 72 hours, with media and test compound replacement every 24 hours. Cells were monitored throughout the treatment period to ensure that no differentiation was occurring. After 72 hours of treatment, the spent media from the final 24-hour treatment period was collected and added to acetonitrile (Sigma-Aldrich, final acetonitrile concentration 40%), to halt metabolic processes and precipitate proteins from solution. Individual wells from each 96-well plate were collected and analyzed as separate samples. These samples were then stored at −80° C. until prepared for LC-HRMS analysis. Cell viability was assessed using the CellTiter-Fluor Cell Viability Assay as per the manufacturer's instructions (Promega, Madison, Wis.). Quality control parameters were set such that if the coefficient of variation (CV) for the viability relative fluorescent units (RFU) of the 6 cellular samples in a treatment exceeded 10% and no outliers were identified using the Grubb's test (see the worldwide web at graphpad.com/quickcalcs/Grubbs1.cfm), analysis was halted for that compound and the cell culture experiment was repeated. If outliers were present, the outlier sample was removed from analysis. If the CV for the DMSO control cell samples on a plate were outside of the quality control parameters, the entire plate was repeated. hES cell exposure to each of the 23 compounds was replicated a total of nine times.
as §2
Phase 2 Prediction of Developmental Toxicity Potential. […] FIG. 2 illustrates how the assay is applied in this situation. A test compound is considered to be teratogenic at the exposure level where the o/c ratio exceeds the teratogenicity threshold (red box, FIG. 2).

[5] = therapeutic peak plasma in vivo concentration, human, cited from earlier work
Rodent = details: training and test set; cited from earlier work
[6] = summarized from TERIS and Briggs et al. 2011, cited from earlier work
Rabbit = details: training and test set; cited from earlier work

SMILES	Model Predictions Version 2.0 (hES cells [1])	Model Predictions Version 2.1 (hES cells [1])	Model Predictions ADMA/Cystine (hES cells [2])	Known Effect (Humans)	O/C Ratio Prediction (WA09 hES cells [3])	Targeted Biomarker Assay prediction (WA09 hES cells [3])	Teratogenicity Potential (μM) O/C Ratio (WA09 hES cells [3]) [µM]	Viability Prediction (WA09 hES cells [4])	Teratogenicity Potential (μM) Cell Viability (WA09 hES cells [4]; human, 72 h) [µM]	Cmax ([5]; test set) [µM]	Humans (known human developmental toxicity) (Humans)	Rodent prediction (Rodent)	Preclinical in vivo and known human developmental effects ([6]; test set compounds)	Cmax ([5]; training set) [µM]	Cytotoxicity at the Cmax exposure level (WA09 hES cells [4]; human, 72 h)	Rabbit prediction (Rabbit)	Preclinical in vivo and known human developmental effects ([6]; training set compounds)	Targeted Biomarker Assay prediction (WA09 hES cells [3]; training and test set, o/c ratio scored against therapeutic Cmax)	Teratogenicity Potential (μM) Cell Viability (WA09 hES cells [4]; training set, interpolated concentration where cell viability dose response curve crosses teratogenicity threshold 0.88, 72 hours) [µM]	Viability Prediction (WA09 hES cells [4]; training set, teratogenicity potential scored against therapeutic Cmax)
C=CC=O [Acrolein]	Ter	Ter	Ter	Ter																
CC1(C)S[C@@H]2[C@H](NC(=O)[C@H](N)c3ccc(O)cc3)C(=O)N2[C@H]1C(=O)O [Amoxicillin]	Non	Non	Non	Non	NON	NON	>300	NON	>300	20.5	NON	NON	None							
O=C1O[C@H]([C@@H](O)CO)C(O)=C1O [Ascorbic Acid]	Non	Non	Non			NON		NON	>300					90						
CN(C)CCOC(c1ccccc1)c1ccccc1 [Diphenhydramine]	Non	Non	Non			NON		NON	78.9											
CN(C)CCOC(C)(c1ccccc1)c1ccccn1 (centres unmarked) [Doxylamine]	Non	Non	Non			NON		NON	>300		NON			0.38						
NC(=O)NO [Hydroxyurea]	Ter	Ter	Ter			TER		TER	251.6		TER			565	greater than 30%					
N[C@@H](CC(=O)N1CCn2c(nnc2C(F)(F)F)C1)Cc1cc(F)c(F)cc1F [Sitagliptin]					NON	NON	22.6	NON	>300	0.95	NON	TER	Low doses: None; High			NON				
Cc1ncc(C[n+]2csc(CCO)c2C)c(N)n1 [Thiamine]	Non	Non	Non	Non	NON	NON	>300	NON	>300		NON			0.67			None			
CC(=O)CC(c1ccccc1)c1c(O)c2ccccc2oc1=O (centres unmarked) [Warfarin]	Ter	Ter	Ter								TER			23.4				TER	>300	NON
